Experiments:
[1] = system: Plasmodium berghei (Pb-Luc) exoerythrocytic-stage parasites; conditions: for PbLuc_max_inhibition (%) / IC50: 2nd round; for PbLuc_max_inhibition (%): maximal inhibition in dose series; for normalized signal at 0.000508053 (first series): concentration 0.000508053, first replicate series; for normalized signal at 0.000508053 (first series) / normalized signal at 0.000508053 (second series) / normalized signal at 0.00152416 (first series) / normalized signal at 0.00152416 (second series) / normalized signal at 0.00457247 (first series) / normalized signal at 0.00457247 (second series) / normalized signal at 0.0137174 (first series) / normalized signal at 0.0137174 (second series) / normalized signal at 0.0411523 (first series) / normalized signal at 0.0411523 (second series) / normalized signal at 0.123457 (first series) / normalized signal at 0.123457 (second series) / normalized signal at 0.37037 (first series) / normalized signal at 0.37037 (second series) / normalized signal at 1.11111 (first series) / normalized signal at 1.11111 (second series) / normalized signal at 3.33333 (first series) / normalized signal at 3.33333 (second series) / normalized signal at 10 (first series) / normalized signal at 10 (second series): fraction of control; for normalized signal at 0.000508053 (second series): concentration 0.000508053, second replicate series; for normalized signal at 0.00152416 (first series): concentration 0.00152416, first replicate series; for normalized signal at 0.00152416 (second series): concentration 0.00152416, second replicate series; for normalized signal at 0.00457247 (first series): concentration 0.00457247, first replicate series; for normalized signal at 0.00457247 (second series): concentration 0.00457247, second replicate series; for normalized signal at 0.0137174 (first series): concentration 0.0137174, first replicate series; for normalized signal at 0.0137174 (second series): concentration 0.0137174, second replicate series; for normalized signal at 0.0411523 (first series): concentration 0.0411523, first replicate series; for normalized signal at 0.0411523 (second series): concentration 0.0411523, second replicate series; for normalized signal at 0.123457 (first series): concentration 0.123457, first replicate series; for normalized signal at 0.123457 (second series): concentration 0.123457, second replicate series; for normalized signal at 0.37037 (first series): concentration 0.37037, first replicate series; for normalized signal at 0.37037 (second series): concentration 0.37037, second replicate series; for normalized signal at 1.11111 (first series): concentration 1.11111, first replicate series; for normalized signal at 1.11111 (second series): concentration 1.11111, second replicate series; for normalized signal at 3.33333 (first series): concentration 3.33333, first replicate series; for normalized signal at 3.33333 (second series): concentration 3.33333, second replicate series; for normalized signal at 10 (first series): concentration 10, first replicate series; for normalized signal at 10 (second series): concentration 10, second replicate series; for IC50: read-out: PbLuc_IC50, Broad DOS compounds, unit not printed (dose series head 10 to 0.000508053)
[2] = system: HepG2-A16-CD81EGFP cells; conditions: 2nd round; for Tox_max_inhibition (%): maximal inhibition in dose series; for IC50: read-out: Tox_IC50, HepG2 cytotoxicity, unit inferred

Row | Structure (SMILES) | PbLuc_max_inhibition (%) [1] [%] | normalized signal at 0.000508053 (first series) [1] | normalized signal at 0.000508053 (second series) [1] | normalized signal at 0.00152416 (first series) [1] | normalized signal at 0.00152416 (second series) [1] | normalized signal at 0.00457247 (first series) [1] | normalized signal at 0.00457247 (second series) [1] | normalized signal at 0.0137174 (first series) [1] | normalized signal at 0.0137174 (second series) [1] | normalized signal at 0.0411523 (first series) [1] | normalized signal at 0.0411523 (second series) [1] | normalized signal at 0.123457 (first series) [1] | normalized signal at 0.123457 (second series) [1] | normalized signal at 0.37037 (first series) [1] | normalized signal at 0.37037 (second series) [1] | normalized signal at 1.11111 (first series) [1] | normalized signal at 1.11111 (second series) [1] | normalized signal at 3.33333 (first series) [1] | normalized signal at 3.33333 (second series) [1] | normalized signal at 10 (first series) [1] | further results
1 | COc1ccc(NC(=O)N(C)C[C@H]2Oc3ccc(NC(=O)Nc4cccc5ccccc45)cc3CC(=O)N([C@@H](C)CO)C[C@@H]2C)cc1 [BRD-K15104969-001-01-5] | 44 | 0.969 | 0.7927 | 1.086 | 0.9921 | 0.8915 | 0.8364 | 1.267 | 0.9174 | 0.9934 | 0.8265 | 1.28 | 0.8011 | 0.9047 | 0.8073 | 0.8441 | 0.8236 | 0.7436 | 1.005 | 0.5627 | normalized signal at 10 (second series) [1]: 0.5558; IC50 [1]: > 10 µM; Tox_max_inhibition (%) [2]: 14%; IC50 [2]: > 10 µM
2 | O=C(C[C@@H]1CC[C@@H]2[C@H](COC[C@@H](O)CN2C(=O)c2ccncc2)O1)Nc1ccc(-c2ccccc2)cc1 [BRD-K17686828-001-01-0] | 43 | 1.033 | 0.8541 | 0.9014 | 0.8307 | 0.9821 | 0.9422 | 1.011 | 0.8936 | 0.9016 | 0.7632 | 1.067 | 0.5683 | 0.7959 | 0.6689 | 0.9118 | 0.6624 | 0.9028 | 0.8412 | 0.8222 | normalized signal at 10 (second series) [1]: 0.7063; IC50 [1]: > 10 µM; Tox_max_inhibition (%) [2]: 9%; IC50 [2]: > 10 µM
3 | N#C[C@@H]1[C@H](c2ccccc2C2=CCCC2)[C@H](CO)N1C(=O)C1CCOCC1 [BRD-K53180201-001-01-6] | 21 | 1.0312 | 0.7931 | 1.021 | 0.9501 | 0.8781 | 0.9105 | 0.9372 | 0.8749 | 0.9703 | 1.2503 | 0.9995 | 1.034 | 0.9827 | 0.991 | 1.008 | 0.8686 | 0.9463 | 0.9769 | 1.181 | normalized signal at 10 (second series) [1]: 1.122; IC50 [1]: > 10 µM; Tox_max_inhibition (%) [2]: 7%; IC50 [2]: > 10 µM
